Data from US4029778A (priority 1969, dated 1977).
Read-outs that look alike come from different tables or passages of the source.

Experiments:
Walker 256 tumor [1] = settings: in vivo
Walker 256 tumor [2] = test: animal or person; settings: Walker 256, ip, read-out: ED50 (Effect)
[3] = system: Harding-Passey Melanoma tumor; test: animal or person; settings: ip, read-out: ED50 (Effect)
Hepatoma 130 tumor [4] = settings: in vivo, ip
[5] = system: Harding-Passey Melanoma tumor
[6] = Walker 256 tumor growth inhibition and lethality, oral (Table 5); type: in vivo; settings: in vivo
Text: (§1) The esters of the invention have shown effect in inhibiting the growth of several tumors, e.g., Ehrlich ascites, Hepatoma AH 130, lymphocytic leukemia (L1210), Walker 256 and Harding-Passey Melanoma according to the procedure of Cancer Chemotherapy National Service Center (Ref.: Cancer Chemotherapy Reports, December 1962).

Walker 256 = test: as above; type: in vivo
Text: as §1

Harding-Passey Melanoma = Harding-Passey Melanoma growth inhibition and lethality, oral (Table 5); type: in vivo; settings: 11 × dose
Text: as §1

[7] = as above; type: in vivo; settings: in vivo, 11 × dose
Text: as §1

Hepatoma 130 tumor [8] = test: animal or person; settings: ip, read-out: ED50 (Effect)
Hepatoma 130 = Hepatoma 130 tumor growth inhibition and lethality, oral (Table 5); type: in vivo; settings: 1 × dose
Text: as §1

[9] = as above; type: in vivo; settings: in vivo, 1 × dose
Text: as §1

tumors = test: antitumor activity (statement in words); type: in vivo
Protocol: as §1
The esters of this invention were tested for effectiveness in inhibiting the growth of Ehrlich ascites, Hepatoma 130, lymphocytic leukemia (L 1210), and Harding-Passey Melanoma, and Walker 256 tumors. The administration was by the intraperitoneal route in each case.

Ehrlich ascites tumor [10] = settings: in vivo, ip; for Lethality: 1000 mg/kg
in vivo [11] = settings: ip
Ehrlich ascites tumor [12] = test: animal or person; settings: ip, read-out: ED50 (Effect)
in vivo [13] = settings: ip; remark: listed apart in the source

Q: Which “antitumor activity against Walker 256 tumors” value (Walker 256 tumor [1]) does the source give for `CC(=O)NC(Cc1ccc(N(CCCl)CCCl)cc1)C(=O)OCC(=O)[C@@]1(O)CC[C@H]2[C@@H]3CCC4=CC(=O)CC[C@]4(C)[C@H]3[C@@H](O)C[C@@]21C` (stereo partly drawn) [hydrocortisone-21-3'-{p-[N-bis-(β-chloroethyl)-amino]-phenyl}-2'-acetamido-propionate] here?
A: same activity

Q: Which ED50 (Walker 256 tumor [2]) does the source give for `C[C@]12C=CC(=O)C=C1CC[C@@H]1[C@@H]2[C@@H](O)C[C@@]2(C)[C@H]1CC[C@]2(O)C(=O)COC(=O)CCCc1ccc(N(CCCl)CCCl)cc1` [prednisolone-21-4'-[p-/N-bis(β-chloroethyl)-amino/-phenyl]-butyrate] here?
A: 1.1 mg/kg

Q: What about the T.I. (Walker 256 tumor [1]; ip) of the same compound?
A: 29

Q: What about the ED50 [3] of the same compound?
A: 3.1 mg/kg

Q: And the T.I. (Hepatoma 130 tumor [4])?
A: 45

Q: What about the T.I. ([5]; intraperitoneal, 11 × dose) of the same compound?
A: 2.2

Q: And the LD50 [6]?
A: 64 mg/kg

Q: And the T.I. (Walker 256)?
A: 64

Q: What about the ED50 (Walker 256; Walker 256, read-out: ED50 (Effect)) of the same compound?
A: 1 mg/kg

Q: What about the T.I. (Harding-Passey Melanoma) of the same compound?
A: 6.7

Q: And the ED50 (Harding-Passey Melanoma; read-out: ED50 (Effect))?
A: 6 mg/kg

Q: And the LD50 [7]?
A: 40 mg/kg

Q: What about the ED50 (Hepatoma 130 tumor [8]) of the same compound?
A: 5.8 mg/kg

Q: What about the T.I. (Hepatoma 130) of the same compound?
A: 2.5

Q: What about the ED50 (Hepatoma 130; read-out: ED50 (Effect)) of the same compound?
A: 155 mg/kg

Q: What about the LD50 [9] of the same compound?
A: 380 mg/kg

Q: For `C[C@]12CCC(=O)C=C1CC[C@@H]1[C@@H]2[C@@H](O)C[C@@]2(C)[C@H]1CC[C@]2(O)C(=O)COC(=O)C(N)Cc1ccc(N(CCCl)CCCl)cc1` (stereo partly drawn) [hydrocortisone-21-3'-{p-[N-bis-(β-chloroethyl)-amino]-phenyl}-2'-aminopropionate], which antitumor activity (tumors) is on record?
A: desired antitumor activity

Q: With `C[C@]12C=CC(=O)C=C1CC[C@@H]1[C@@H]2C(=O)C[C@@]2(C)[C@H]1CC[C@]2(O)C(=O)COC(=O)c1ccc(N(CCCl)CCCl)cc1` [prednisone-21-p-/N-bis(β-chloroethyl)-amino/-benzoate] as the compound, how does the “ED50 (Effect)” value (Hepatoma 130 tumor [4]) read?
A: 58 mg/kg

Q: And the Lethality (Hepatoma 130 tumor [4]; 1000 mg/kg)?
A: no toxicity

Q: And the “ED50 (Effect)” value ([5]; intraperitoneal, 11 × dose)?
A: 18 mg/kg

Q: And the “ED50 (Effect)” value (Ehrlich ascites tumor [10])?
A: 12 mg/kg

Q: What about the Lethality (Ehrlich ascites tumor [10]) of the same compound?
A: no toxicity

Q: What about the LD50 (in vivo [11]) of the same compound?
A: 97 mg/kg

Q: For `Cc1ccc(C(=O)OCC(=O)[C@@]2(O)CC[C@H]3[C@@H]4CCC5=CC(=O)C=C[C@]5(C)[C@H]4[C@@H](O)C[C@@]32C)cc1N(CCCl)CCCl` [prednisolone-21-3'-[N-bis-(β-chloroethyl)-amino]-4'-methyl-benzoate], which antitumor activity (tumors) is on record?
A: having the desired antitumor activity

Q: For `C[C@]12C=CC(=O)C=C1CC[C@@H]1[C@@H]2[C@@H](O)C[C@@]2(C)[C@H]1CC[C@]2(O)C(=O)COC(=O)c1ccc(N(CCCl)CCCl)cc1` [prednisolone-21-p-/N-bis(β-chloroethyl)-amino/-benzoate], which “ED50 (Effect)” value (Walker 256 tumor [1]; ip) is on record?
A: 9.6 mg/kg

Q: What about the “ED50 (Effect)” value (Hepatoma 130 tumor [4]) of the same compound?
A: 5.6 mg/kg

Q: What about the “ED50 (Effect)” value ([5]; intraperitoneal, 11 × dose) of the same compound?
A: 3.4 mg/kg

Q: What about the “ED50 (Effect)” value (Ehrlich ascites tumor [10]) of the same compound?
A: 13 mg/kg

Q: What about the Lethality (Ehrlich ascites tumor [10]) of the same compound?
A: no toxicity

Q: And the antitumor activity (tumors)?
A: desired antitumor activity

Q: For `Cc1ccc(C(=O)OCC(=O)[C@@]2(O)CC[C@H]3[C@@H]4CCC5=CC(=O)CC[C@]5(C)[C@H]4[C@@H](O)C[C@@]32C)cc1N(CCCl)CCCl` [hydrocortisone-21-3'-[N-bis-(β-chloroethyl)-amino]-4'-methylbenzoate], which antitumor activity (tumors) is on record?
A: desired antitumor activity

Q: Which “antitumor activity against Walker 256 tumors” value (Walker 256 tumor [1]) does the source give for `CC(=O)NC(Cc1ccc(N(CCCl)CCCl)cc1)C(=O)OCC(=O)[C@@]1(O)CC[C@H]2[C@@H]3CCC4=CC(=O)C=C[C@]4(C)[C@H]3[C@@H](O)C[C@@]21C` (stereo partly drawn) [prednisolone-21-3'-{p-[N-bis-(β-chloroethyl)-amino]-phenyl}-2'-acetamido-propionate] here?
A: active antitumor agent

Q: Which antitumor activity (tumors) does the source give for `C[C@]12CCC(=O)C=C1CC[C@@H]1[C@@H]2[C@@H](O)C[C@@]2(C)[C@H]1CC[C@]2(O)C(=O)COC(=O)CCCc1ccc(N(CCCl)CCCl)cc1` [hydrocortisone-21-4'-{p-[N-bis-(β-chloroethyl)-amino]-phenyl}-butyrate] here?
A: desired antitumor activity

Q: With `C[C@]12C=CC(=O)C=C1CC[C@@H]1[C@@H]2[C@@H](O)C[C@@]2(C)[C@H]1CC[C@]2(O)C(=O)CO` [Prednisolone, pregna-1,4-dien-11β,17α ,21-triol-3,20-dion, reference compound] as the compound, how does the ED50 (Walker 256 tumor [2]) read?
A: 214 mg/kg

Q: What about the T.I. (Walker 256 tumor [1]; ip) of the same compound?
A: 3.0

Q: What about the T.I. (Hepatoma 130 tumor [4]) of the same compound?
A: 6.6

Q: And the ED50 (Ehrlich ascites tumor [12])?
A: 120 mg/kg

Q: And the T.I. ([5]; in vivo, ip)?
A: < 2.5

Q: And the Effect ([5]; in vivo, ip, 243 mg/kg)?
A: no effect

Q: And the T.I. (Ehrlich ascites tumor [10])?
A: > 8.3

Q: And the Lethality (Ehrlich ascites tumor [10])?
A: no toxicity

Q: And the ED50 (Hepatoma 130 tumor [8])?
A: 118 mg/kg

Q: With `C[C@]12C=CC(=O)C=C1CC[C@@H]1[C@@H]2[C@@H](O)C[C@@]2(C)[C@H]1CC[C@]2(O)C(=O)COC(=O)Cc1ccc(N(CCCl)CCCl)cc1` [prednisolone-21-p-/N-bis(β-chloroethyl)-amino/-phenylacetate] as the compound, how does the “ED50 (Effect)” value (Hepatoma 130 tumor [4]) read?
A: 27 mg/kg

Q: And the LD50 (in vivo [13])?
A: 560 mg/kg

Q: For `C[C@]12C=CC(=O)C=C1CC[C@@H]1[C@@H]2[C@@H](O)C[C@@]2(C)[C@H]1CC[C@]2(O)C(=O)COC(=O)C(N)Cc1ccc(N(CCCl)CCCl)cc1` (stereo partly drawn) [prednisolone-21-3'-{p-[N-bis-(β-chloroethyl)-amino]-phenyl}-2'-aminopropionate], which antitumor activity (tumors) is on record?
A: desired antitumor activity

Q: For `O=C(O)CCCc1ccc(N(CCCl)CCCl)cc1` [Chlorambucil, reference compound], which “ED50 (Effect)” value (Hepatoma 130 tumor [4]) is on record?
A: 4.3 mg/kg

Q: And the LD50 [6]?
A: 13.5 mg/kg

Q: And the “ED50 (Effect)” value (Walker 256)?
A: 0.42 mg/kg

Q: And the “ED50 (Effect)” value (Harding-Passey Melanoma)?
A: 2.3 mg/kg

Q: And the LD50 [7]?
A: 7 mg/kg

Q: And the LD50 (in vivo [13])?
A: 30 mg/kg

Q: And the “ED50 (Effect)” value (Hepatoma 130)?
A: > 31 mg/kg

Q: What about the LD50 [9] of the same compound?
A: 55 mg/kg

Q: With `C[C@]12CCC(=O)C=C1CC[C@@H]1[C@@H]2[C@@H](O)C[C@@]2(C)[C@H]1CC[C@]2(O)C(=O)COC(=O)c1ccc(N(CCCl)CCCl)cc1` [hydrocortisone-21-p-/N-bis(β -chloroethyl)-amino/-benzoate] as the compound, how does the “ED50 (Effect)” value (Hepatoma 130 tumor [4]) read?
A: 28 mg/kg

Q: And the “ED50 (Effect)” value ([5]; intraperitoneal, 11 × dose)?
A: 19 mg/kg

Q: And the “ED50 (Effect)” value (Ehrlich ascites tumor [10])?
A: 15 mg/kg
